Results from US20110312945A1, “CRTH2 MODULATORS” (priority 2008, published 2011).

What was measured:
[1] = target: T1, CRTH2 (Homo sapiens, UniProt Q9Y5Y4); test: DPBS CD11b Antagonist Assay; format: cell-based; conditions: polymorphonuclear cells in PBS, eosinophil CD11b expression, challenge with 15R-Methyl-PGD2 (10 nM)
T1 construct: polymorphonuclear cells (0.5 ml; 10^6/ml cells) in PBS containing 0.9 mM CaCl2 and 0.5 mM MgCl2; endogenous in cells; host or cells: polymorphonuclear cells (eosinophils gated by flow cytometry)
T1 sequence (Q9Y5Y4 1-395): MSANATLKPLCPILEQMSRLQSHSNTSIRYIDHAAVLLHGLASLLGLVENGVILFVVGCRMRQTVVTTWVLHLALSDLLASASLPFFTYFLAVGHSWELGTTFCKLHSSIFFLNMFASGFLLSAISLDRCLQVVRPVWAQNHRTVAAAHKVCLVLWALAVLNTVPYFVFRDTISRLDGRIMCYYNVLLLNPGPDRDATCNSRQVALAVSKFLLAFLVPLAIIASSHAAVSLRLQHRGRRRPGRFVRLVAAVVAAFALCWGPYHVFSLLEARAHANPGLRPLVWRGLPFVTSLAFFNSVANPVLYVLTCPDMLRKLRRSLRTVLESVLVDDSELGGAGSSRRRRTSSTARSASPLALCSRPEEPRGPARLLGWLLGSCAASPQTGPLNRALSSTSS
Procedure: DPBS CD11b Antagonist Assay. The potential CRTH2 antagonist activity of certain compounds was tested using a CD11b expression assay using essentially the method described by Monneret et al. (J Pharmacol Exp Ther 304:349-55, 2003). Briefly, polymorphonuclear cells (0.5 ml; 10^6/ml cells) in PBS containing 0.9 mM CaCl2 and 0.5 mM MgCl2) were preincubated with various concentrations of test compounds at room temperature for 10 minutes before they were challenged with the agonist 15R-Methyl-PGD2 (10 nM). The incubations were terminated by the addition of ice-cold FACSFlow (BD Biosciences; Cat# 342003) and centrifugation (400 g for 5 minutes at 4° C.). The cells were then incubated for 30 minutes at 4° C. with a mixture of PE-labeled mouse anti-human VLA-4 (5 μl; BD Biosciences) and FITC-labeled mouse anti-human CD11b (10 μl; Beckman Coulter). The cells were then incubated with Optilyse C (0.25 ml; Beckman Coulter) for 15 minutes, centrifuged, and then fixed in PBS (0.4 ml; calcium and magnesium free) containing 1% formaldehyde. The distribution of fluorescence intensities among 60,000 cells was measured by flow cytometry. Eosinophils were gated out on the basis of their granularity (high side scatter) and labeling with VLA-4 (PE fluorescence). CD11b was then measured in the eosinophil region on the basis of fluorescence due to FITC. All data were corrected for the value obtained for the corresponding isotope control antibody.

[2] = target: T1, CRTH2; test: Human Whole Blood CD11b Antagonist Assay; format: cell-based; conditions: eosinophil CD11b expression, challenge with 15R-Methyl-PGD2 (10 nM)
Procedure: Human Whole Blood CD11b Antagonist Assay (modified from Nicholson, et al. Pulmonary Pharmacology and Therapeutics: 20 (2007); 52-59). The potential CRTH2 antagonist activity of certain compounds was tested in human whole blood using an assay that tests the ability of the compounds to block the CD11b expression in eosinophils by 15-R-methyl-PGD2. A CRTH2 antagonist should block CD11b expression by subsequently added 15-Methyl-PGD2. Human whole blood (200 μL) was incubated at 37° C. for 10 minutes in the presence of various concentrations of test compounds before being challenged with the agonist 15R-Methyl-PGD2 (10 nM). Reactions were terminated by the addition of ice-cold PBS+0.5% BSA+2 mMEDTA (1 mL) and centrifugation (300×g for 5 minutes at 4° C.) Cells were then incubated at 4° C. for 10 min in the presence of human IgG. Cells were then incubated for 30-45 min with a mixture of PE-Cy5-labeled mouse anti-human CD16 (10 ul; BD Biosciences) and FITC-labeled mouse anti-human CD11b (10 μL; Beckman Coulter.) After rinsing (1 mL ice-cold PBS+0.5% BSA+2 mMEDTA), red blood cells were lysed by the addition of 1 mL ice-cold H2O to the cell pellet for 30 sec-1 min immediately followed by the addition of 3.5% NaCl (300 μL.) Cells were then rinsed (2x−1 ml ice cold PBS+0.5% BSA+2 mMEDTA) and fixed in PBS containing 1% formaldehyde. The distribution of fluorescence intensities was measured by flow cytometry. Eosinophils were gated out on the basis of their granularity (high side scatter) and absence of CD-16. CD11b was then measured on this eosinophil population on the basis of fluorescence due to FITC.

Cc1c(Cc2ccc(S(=O)(=O)NC(C)C(C)(C)C)cc2)c2c(n1CC(=O)O)CCCC2 (stereo not drawn) [Example I-3, 2-(3-(4-(N-(3,3-Dimethylbutan-2-yl)sulfamoyl)benzyl)-2-methyl-4,5,6,7-tetrahydro-1H-indol-1-yl)acetic acid]
IC50 [1]: < 5 nM | IC50 [2]: 5 to 100 nM

CCOC(=O)N1CCN(S(=O)(=O)c2ccc(Cc3c4c(n(CC(=O)O)c3C)CCCC4)cc2)CC1 [Example I-5, 2-(3-(4-(4-(Ethoxycarbonyl)piperazin-1-ylsulfonyl)benzyl)-2-methyl-4,5,6,7-tetrahydro-1H-indol-1-yl)acetic acid]
IC50 [1]: < 5 nM | IC50 [2]: 5 to 100 nM

Cc1c(Cc2ccc(S(=O)(=O)N3CCOCC3)cc2)c2c(n1CC(=O)O)CCCC2 [Example I-6, 2-(2-Methyl-3-(4-(morpholinosulfonyl)benzyl)-4,5,6,7-tetrahydro-1H-indol-1-yl)acetic acid]
IC50 [1]: < 5 nM | IC50 [2]: 100 to 500 nM

Cc1c(Cc2ccccc2S(=O)(=O)c2ccccc2)c2c(n1CC(=O)O)CCCC2 [Example I-7, 2-(2-methyl-3-(2-(phenylsulfonyl)benzyl)-4,5,6,7-tetrahydro-1H-indol-1-yl)acetic acid]
IC50 [1]: < 5 nM | IC50 [2]: 5 to 100 nM

Cc1c(Cc2ccc(S(=O)(=O)NC3CC3)cc2)c2c(n1CC(=O)O)CCCC2 [Example I-8, 2-(3-(4-(N-Cyclopropylsulfamoyl)benzyl)-2-methyl-4,5,6,7-tetrahydro-1H-indol-1-yl)acetic acid]
IC50 [1]: < 5 nM | IC50 [2]: 5 to 100 nM

Cc1c(Cc2ccc(S(=O)(=O)NC(C)C)cc2)c2c(n1CC(=O)O)CCCC2 [Example I-10, 2-(3-(4-(N-Isopropylsulfamoyl)benzyl)-2-methyl-4,5,6,7-tetrahydro-1H-indol-1-yl)acetic acid]
IC50 [1]: < 5 nM | IC50 [2]: 100 to 500 nM

CCOC(=O)N1CCN(S(=O)(=O)c2ccc(Cc3c4c(n(CC(=O)O)c3C)CCC(C)(C)C4)cc2)CC1 [Example I-12, 2-(3-(4-(4-(Ethoxycarbonyl)piperazin-1-ylsulfonyl)benzyl)-2,5,5-trimethyl-4,5,6,7-tetrahydro-1H-indol-1-yl)acetic acid]
IC50 [1]: < 5 nM | IC50 [2]: 5 to 100 nM

Cc1c(Cc2ccc(S(=O)(=O)N3CCCCC3)cc2)c2c(n1CC(=O)O)CCC(C)(C)C2 [Example I-13, 2-(2,5,5-Trimethyl-3-(4-(piperidin-1-ylsulfonyl)benzyl)-4,5,6,7-tetrahydro-1H-indol-1-yl)acetic acid]
IC50 [1]: < 5 nM | IC50 [2]: 100 to 500 nM

Cc1c(Cc2ccccc2S(=O)(=O)N2CCCC2)c2c(n1CC(=O)O)CCC(C)(C)C2 [Example I-14, 2-(2,5,5-Trimethyl-3-(2-(pyrrolidin-1-ylsulfonyl)benzyl)-4,5,6,7-tetrahydro-1H-indol-1-yl)acetic acid]
IC50 [1]: < 5 nM | IC50 [2]: 5 to 100 nM

Cc1c(Cc2ccccc2S(=O)(=O)N2CCOCC2)c2c(n1[C@@H](C)C(=O)O)CCC(C)(C)C2 [Example I-34, (S)-2-(2,5,5-trimethyl-3-(2-(morpholinosulfonyl)benzyl)-4,5,6,7-tetrahydro-1H-indol-1-yl)propanoic acid]
IC50 [1]: 5 to 100 nM | IC50 [2]: > 500 nM

CCOC(=O)Cn1c(C)c(Sc2ccc(F)cc2S(=O)(=O)N2CCCC2)c2c1CC(C)(C)CC2=O [Example I-57, Ethyl 2-(3-(4-fluoro-2-(pyrrolidin-1-ylsulfonyl)phenylthio)-2,6,6-trimethyl-4-oxo-4,5,6,7-tetrahydro-1H-indol-1-yl)acetate]
IC50 [1]: 5 to 100 nM

COC(=O)Cn1c(C)c(Cc2ccccc2S(=O)(=O)N2CCCC2)c2c1CC(C)(C)CC2=O [Example I-58, Methyl 2-(2,6,6-trimethyl-4-oxo-3-(2-(pyrrolidin-1-ylsulfonyl)benzyl)-4,5,6,7-tetrahydro-1H-indol-1-yl)acetate]
IC50 [1]: 5 to 100 nM

COC(=O)Cn1c(C)c(Cc2ccccc2S(=O)(=O)N2CCOCC2)c2c1CC(C)(C)CC2=O [Example I-59, methyl 2-(2,6,6-trimethyl-3-(2-(morpholinosulfonyl)benzyl)-4-oxo-4,5,6,7-tetrahydro-1H-indol-1-yl)acetate]
IC50 [1]: 5 to 100 nM

Cc1c(Cc2ccccc2S(=O)(=O)N2CCOCC2)c2c(n1CC(=O)OC(C)C)CC(C)(C)CC2=O [Example I-60, isopropyl 2-(2,6,6-trimethyl-3-(2-(morpholinosulfonyl)benzyl)-4-oxo-4,5,6,7-tetrahydro-1H-indol-1-yl)acetate]
IC50 [1]: > 500 nM

Cc1c(Cc2ccccc2S(=O)(=O)N2CCCC2)c2c(n1CC(=O)OCCN1CCOCC1)CC(C)(C)CC2=O [Example I-62, 2-morpholinoethyl 2-(2,6,6-trimethyl-4-oxo-3-(2-(pyrrolidin-1-ylsulfonyl)benzyl)-4,5,6,7-tetrahydro-1H-indol-1-yl)acetate]
IC50 [1]: < 5 nM

CCOC(=O)Cn1c(C)c(Cc2ccccc2S(=O)(=O)N(C)c2ccccc2)c2c1CC(C)(C)CC2=O [Example I-66, ethyl 2-(2,6,6-trimethyl-3-(2-(N-methyl-N-phenylsulfamoyl)benzyl)-4-oxo-4,5,6,7-tetrahydro-1H-indol-1-yl)acetate]
IC50 [1]: 5 to 100 nM

Cc1c(S(=O)(=O)N(C)c2ccccc2)c2c(n1CC(=O)O)CC(C)(C)CC2=O [Example I-75, 2-(2,6,6-trimethyl-3-(N-methyl-N-phenylsulfamoyl)-4-oxo-4,5,6,7-tetrahydro-1H-indol-1-yl)acetic acid]
IC50 [1]: > 500 nM

Cc1c(Cc2ccccc2S(=O)(=O)N2CCCC2)c2c(n1CC(=O)O)CCCC2=O [Example I-77, 2-(2-methyl-4-oxo-3-(2-(pyrrolidin-1-ylsulfonyl)benzyl)-4,5,6,7-tetrahydro-1H-indol-1-yl)acetic acid]
IC50 [1]: < 5 nM

Cc1c(Cc2ccccc2S(=O)(=O)c2cccs2)c2c(n1CC(=O)O)CC(C)(C)CC2=O [Example I-81, 2-(2,6,6-trimethyl-4-oxo-3-(2-(thiophen-2-ylsulfonyl)benzyl)-4,5,6,7-tetrahydro-1H-indol-1-yl)acetic acid]
IC50 [1]: < 5 nM

Cc1c(Cc2ccccc2S(=O)(=O)C2CCCCC2)c2c(n1CC(=O)O)CC(C)(C)CC2=O [Example I-82, 2-(3-(2-(cyclohexylsulfonyl)benzyl)-2,6,6-trimethyl-4-oxo-4,5,6,7-tetrahydro-1H-indol-1-yl)acetic acid]
IC50 [1]: < 5 nM

Cc1c(Cc2ccccc2S(=O)(=O)N2CCCC2)c2c(n1CC(N)=O)CC(C)(C)CC2=O [Example I-84, 2-(2,6,6-trimethyl-4-oxo-3-(2-(pyrrolidin-1-ylsulfonyl)benzyl)-4,5,6,7-tetrahydro-1H-indol-1-yl)acetamide]
IC50 [1]: > 500 nM

Cc1c(Cc2ccccc2S(=O)(=O)N2CCCC2)c2c(n1CC(=O)O)CC(C)(C)C(C)(C)C2=O [Example I-95, 2-(2,5,5,6,6-pentamethyl-4-oxo-3-(2-(pyrrolidin-1-ylsulfonyl)benzyl)-4,5,6,7-tetrahydro-1H-indol-1-yl)acetic acid]
IC50 [1]: < 5 nM

Cc1c(Cc2ccccc2S(=O)(=O)N2CCCC2)c2c(n1CC(=O)O)CC(C)(C)C(F)(F)C2=O [Example I-96, 2-(5,5-difluoro-2,6,6-trimethyl-4-oxo-3-(2-(pyrrolidin-1-ylsulfonyl)benzyl)-4,5,6,7-tetrahydro-1H-indol-1-yl)acetic acid]
IC50 [1]: < 5 nM
